Source: paper PMC3655251, “Urea Output by L3 Teladorsagia circumcincta and some Properties of Two Urea Producing Enzymes” (Iranian Journal of Parasitology, 2013)

Key:
[1] = test system: T1, creatine amidinohydrolase; assay: coupled urease / glutamate dehydrogenase assay, NADH oxidation at […] nm; format: biochemical, Teladorsagia circumcincta; conditions: L3 homogenate, 100 mM phosphate buffer, 30 °C, no metal added; read-out: apparent K m
T1 construct: native activity in crude homogenate of L3 larvae, not purified; no nematode gene homologue found by the authors

[2] = test system: T2, arginine amidinohydrolase; assay: as above; format: biochemical, Teladorsagia circumcincta; conditions: L3 homogenate, 100 mM phosphate buffer, 30 °C, no metal added; read-out: apparent K m
T2 construct: native enzyme in crude homogenate of L3 larvae, not purified

SMILES | Km [1] | Km [2]
CN(CC(=O)O)C(=N)N [creatine] | 1100 ± 100 µM | –
N=C(N)NCCC[C@H](N)C(=O)O [arginine] | – | 700 ± 200 µM
